{"source": "patent US20060263304A1", "about": "“Method of controlling alcohol intake and reversing alcohol effects” (priority 2005, published 2006)", "tested_on": "non-substance dependent individual", "assay": "Case report: Flumazenil nasal spray before business dinners, control of alcohol intake", "type": "in vivo", "source_text": "As in the co-pending applications, medication sprays are used to accomplish the above noted tasks. any one of several technologies may be used: • 1) A nasal spray applicator affecting the vein endings in the mucosal membranes of the nasal passage; • 2) A mouth spray affecting the buccal mucosal membrane in the mouth area; • 3) A pulmonary inhaler aerosolization into the lungs; • 4) Any other delivery system that provides direct absorption through mucus membranes directly into the blood stream. For example, the nasal spray may be used by an individual to assist in maintaining control of his or her drinking on a frequent or daily basis because they or their loved ones feel their use of alcohol is excessive. The spray will also act as a behavior trigger to assist in reminding the individual or retraining the individual to mind the frequency, amount or setting of intake of alcohol. In this setting of spray-assisted control of alcohol use there is provided a positive reinforcement of successful moderation, and eventually, the spray assist should no longer be needed. From several hours before, and including even while the individual is already drinking, the user of this nasal spray simply squirts one to three doses into each nostril in order to substantially decrease the total consumption of alcohol at any one drinking session. The duration of the effect will vary from individual to individual. The administration of the spray may be repeated as often as one wishes over the period or course of drinking to achieve the desired results, that is, a reduction in the use of alcohol, whether in total amount or in rapidity of alcohol ingestion. Case Report: A non-substance dependent individual ([…]) used this nasal spray by spraying two squirts of the medication “Flumazenil” into each nostril before business dinners on two separate occasions. Without this medication, their usual pattern was the ingestion of one to two martinis before and at the beginning of the meal, followed by one to two glasses of wine during and after the meal.", "data": [{"smiles": "CCOC(=O)c1ncn2c1CN(C)C(=O)c1cc(F)ccc1-2", "note": "[Flumazenil]", "values": [{"measurement": "effect of the alcohol on their thinking and feeling", "setting": "two squirts into each nostril before business dinner, each of two occasions, self-reported", "result": "less of an effect on their thinking and feeling than usual"}, {"measurement": "actual intake of wine", "setting": "two squirts into each nostril before business dinner, each of two occasions, usual pattern without medication one to two glasses of wine", "result": "less than one glass of wine"}, {"measurement": "actual intake of martini", "setting": "two squirts into each nostril before business dinner, each of two occasions, usual pattern without medication one to two martinis", "result": "less than one martini"}, {"measurement": "interest in the alcoholic beverages", "setting": "two squirts into each nostril before business dinners, two separate occasions, one individual", "result": "substantially reduced"}]}]}
